The values below are quoted from earlier work in patent US20080312245A1, “Methods and compositions for treating acne and other infectious diseases” (priority 2007, published 2008).

The structures appear in SMILES notation.

`Cc1ncc([N+](=O)[O-])n1CCO` [Metronidazole, 2-methyl-5-nitro-1H-imidazole-1-ethanol]: the solubility in alcohol result is recorded as “slightly soluble”.
